Values joined by “and” are separate entries in the source; they are usually repeats but may differ in a detail not shown here. Equal entries are not always repeated. Where two headings read alike, the source gives them in different places.
Columns and labels:
[1] = system: L. donovani promastigotes; assay: L. donovani promastigote viability assay (resazurin); type: cell-based; details: Leishmania donovani; 72 h exposure, resazurin readout, two independent experiments; read-out: L. donovani Promastigote Inhibition IC50
Experimental: The inhibition of L. donovani promastigote growth was assessed by measuring the conversion of resazurin to resorufin. The promastigotes were dispensed at a density of 5 × 10^4 L. donovani promastigotes per well into 384-well plates and exposed to the natural product library composed of 2562 molecules at 10 μM for 72 h. Following the incubation, resazurin sodium salt was added, and the plates were further incubated for 5 h before fixation using 4% paraformaldehyde. The results were then analyzed using a Victor3™ plate reader (PerkinElmer, Shelton, CT, USA) at an emission wavelength of 590 nm and an excitation wavelength of 530 nm. Amphotericin B and miltefosine served as reference drugs for inhibiting the growth of L. donovani promastigotes. The hits identified from the screening were confirmed by testing in a 10-point, 1/2 dilution manner starting from 400, 200, 100, or 50 μM (depending on the solubility and activity) in duplicates of two independent experiments to calculate the IC50 values.
(§1) All of the IC50 and the half-maximal cytotoxic concentration (CC50) values were calculated using two independent experiments. Outliers were excluded, and the dose–response curves were fitted using the GraphPad Prism V6.0 software (GraphPad Software, San Diego, CA, USA) by using a sigmoidal dose–response equation with a variable hill slope option.

[2] = system: L. donovani intracellular amastigotes; assay: Intracellular L. donovani amastigote assay in THP-1 cells (image-based); type: cell-based, Leishmania donovani; details: for IC50: Leishmania donovani, amastigotes in PMA-treated THP-1 cells, 72 h, read-out: Intracellular L. donovani Inhibition IC50; for Selectivity Index (SI): THP-1 CC50 / amastigotes IC50
Experimental: (§2) PMA-treated THP-1 cells were seeded at 0.8 × 10^4 cells per well in a 384-well plate in RPMI-1640 complete medium supplemented with 10% FBS. After 48 h of incubation at 37 °C in the presence of 5% CO2, the L. donovani amastigotes, isolated from infected hamster liver, were added to the cell culture at a ratio of 10:1. The infected THP-1 cells were treated with screening compounds (the same set used in the promastigotes HTS) at 10 µM, with amphotericin B and miltefosine serving as positive controls and 0.5% DMSO as a negative control. After 72 h, the cells and parasites were washed, stained, and fixed with 5 µM DAPI and 4% PFA. Images were acquired through Operetta® CLS™ (PerkinElmer, Shelton, CT, USA), and the numbers of parasites, host cells, and infection ratios were quantified using the Columbus™ software (https://www.perkinelmer.com/product/image-data-storage-and-analysis-system-columbus, accessed on 7 February 2024) (PerkinElmer, Shelton, CT, USA). The hits identified from the screening were confirmed by testing in a 10-point, 1/2 dilution manner starting from 400, 200, 100, or 50 μM in duplicates of two independent experiments to calculate the IC50 values.
as §1

THP-1 cells = assay: Host cell cytotoxicity in the intracellular Leishmania assay (THP-1 cell ratio); type: cell-based, Human; details: host THP-1 cells in the intracellular assay, 72 h
Experimental: as §2, §1

L. infantum = system: L. infantum; parameters: method as in PMID 32441133; details: read-out: IC50 against L. infantum; cited from earlier work
[3] = system: eukaryotic RNA polymerase; parameters: method as in PMID 32342856; details: higher constant indicates lower affinity; cited from earlier work
[4] = system: intracellular amastigotes; parameters: method as in PMID 37091674; details: read-out: IC50 against intracellular amastigotes; cited from earlier work
hepatic parasites = system: hepatic parasites; parameters: method as in PMID 37091674; details: murine model of visceral leishmaniasis; cited from earlier work
L. donovani amastigotes [5] = system: L. donovani amastigotes; parameters: method as in PMID 28498323; details: read-out: IC50 against L. donovani amastigotes; cited from earlier work
Trypanosoma brucei = system: Trypanosoma brucei; parameters: method as in PMID 28498323; details: read-out: IC50 against Trypanosoma brucei; cited from earlier work
T. cruzi = system: T. cruzi; parameters: method as in PMID 28498323; details: read-out: IC50 against T. cruzi; cited from earlier work
L. donovani amastigotes [6] = system: L. donovani amastigotes; parameters: method as in PMID 30319238; details: read-out: IC50 against L. donovani amastigotes; cited from earlier work
T. brucei = system: T. brucei; parameters: method as in PMID 30319238; details: read-out: IC50 against T. brucei; cited from earlier work

OC1C=C2CCN3Cc4cc5c(cc4C(C1O)C23)OCO5 (centres unmarked) [BMD-NP-00820]
IC50 [1]: 3.99 ± 0.4 µM
IC50 [2]: 1.74 ± 0.27 µM
Selectivity Index (SI) [2]: >28.7
THP-1 Cell Ratio CC50 (THP-1 cells): >50.00 µM

O[C@H]1[C@H]2c3cc4c(cc3CN3CCC(=C[C@@H]1O)[C@H]23)OCO4 [BMD-NP-01077, Lycorine]
IC50 [1]: 6.99 ± 0.74 µM
IC50 [2]: 2.63 ± 0.57 µM
Selectivity Index (SI) [2]: >19.0
THP-1 Cell Ratio CC50 (THP-1 cells): >50.00 µM

CC(C)C1CC(=O)Oc2cc(O)c3c(=O)cc(-c4ccc(O)c(O)c4)oc3c21 (centres unmarked) [BMD-NP-01550]
IC50 [1]: 23.5 ± 0.52 µM
IC50 [2]: 3.44 ± 0.64 µM
Selectivity Index (SI) [2]: 6.1
THP-1 Cell Ratio CC50 (THP-1 cells): 20.84 ± 1.04 µM

COc1cc([C@@H]2CC(=O)Oc3ccc4c(=O)c(-c5ccccc5)coc4c32)ccc1O [BMD-NP-01555]
IC50 [1]: 12.9 ± 0.28 µM
IC50 [2]: 2.2 ± 0.29 µM
THP-1 Cell Ratio CC50 (THP-1 cells): >50.00 µM

O=C1C[C@H](c2cccnc2)c2c(cc(O)c3c(=O)c(-c4ccc(Cl)cc4)coc23)O1 [BMD-NP-01559]
IC50 [1]: 19.08 ± 0.13 µM
IC50 [2]: 2.37 ± 0.49 µM
Selectivity Index (SI) [2]: >21.1
THP-1 Cell Ratio CC50 (THP-1 cells): > 50.00 µM

COc1ccc([C@H]2CC(=O)Oc3ccc4c(c32)O/C(=C\c2cc(OC)c(OC)cc2OC)C4=O)cc1O [BMD-NP-01562]
IC50 [1]: 9.88 ± 0.71 µM
IC50 [2]: 5.1 ± 0.34 µM
Selectivity Index (SI) [2]: >9.8
THP-1 Cell Ratio CC50 (THP-1 cells): >50.00 µM

COc1cc(C=C2Oc3c(ccc4c3C(c3ccnn3C(C)C)CC(=O)O4)C2=O)cc(OC)c1OC (centres unmarked) [BMD-NP-01586]
IC50 [1]: 36.3 ± 0.42 µM
IC50 [2]: 2.97 ± 0.33 µM
Selectivity Index (SI) [2]: 12.4
THP-1 Cell Ratio CC50 (THP-1 cells): 36.90 ± 1.13 µM

CCCCOc1ccc(C(=O)Oc2c(C)c3c4c5c2C(=O)C(=C(N2CCCCC2)C5=O)NC(=O)C(C)=CC=CC(C)C(O)C(C)C(O)C(C)C(OC(C)=O)C(C)C(OC)C=COC(C)(O3)C4=O)cc1 (centres unmarked) [BMD-NP-02070]
IC50 [1]: 29.9 ± 1.27 µM
IC50 [2]: 3.34 ± 0.42 µM
Selectivity Index (SI) [2]: >15.0

COC1C=COC2(C)Oc3c(C)c(OC(=O)c4ccccc4)c4c(c3C2=O)C(=O)C(N2CC(C)OC(C)C2)=C(NC(=O)C(C)=CC=CC(C)C(O)C(C)C(O)C(C)C(OC(C)=O)C1C)C4=O (centres unmarked) [BMD-NP-02084]
IC50 [1]: 2.53 ± 0.14 µM
IC50 [2]: 2.12 ± 0.4 µM
Selectivity Index (SI) [2]: 5.9
THP-1 Cell Ratio CC50 (THP-1 cells): 12.45 ± 1.02 µM

COc1ccc(NC2=C3NC(=O)C(C)=CC=CC(C)C(O)C(C)C(O)C(C)C(OC(C)=O)C(C)C(OC)C=COC4(C)Oc5c(C)c(OC(=O)c6ccc(C)cc6)c(c(c5C4=O)C2=O)C3=O)cc1 (centres unmarked) [BMD-NP-02085]
IC50 [1]: 1.76 ± 0.28 µM
IC50 [2]: 1.76 ± 0.85 µM
Selectivity Index (SI) [2]: 7.5 and 7.4
THP-1 Cell Ratio CC50 (THP-1 cells): 13.07 µM and 13.07 ± 0.56 µM

COc1ccc(CCOc2cc([C@@H]3CC(=O)Oc4cc(O)c5c(=O)cc(-c6ccc(O)c(O)c6)oc5c43)ccc2OC)cc1 [BMD-NP-02255]
IC50 [1]: 45.9 ± 1.09 µM
IC50 [2]: 4.9 ± 0.65 µM
THP-1 Cell Ratio CC50 (THP-1 cells): >50.00 µM

CCCC1CC(=O)Oc2c(C(=O)C(C)C(C)O)c(O)c3c(c21)OC(C)(C)C=C3 (centres unmarked) [Calanolide E2]
IC50 (L. infantum): 29.1 µM

CO[C@H]1/C=C/O[C@@]2(C)Oc3c(C)c(O)c4c(O)c(cc(O)c4c3C2=O)NC(=O)/C(C)=C\C=C\[C@H](C)[C@H](O)[C@@H](C)[C@@H](O)[C@@H](C)[C@H](OC(C)=O)[C@@H]1C [Rifamycin]
binding constant for eukaryotic RNA polymerase relative to prokaryotic RNA polymerase [3]: 100 times

O=c1cc(-c2ccc(O)cc2)oc2cc(O)cc(O)c12 [apigenin, 4′,5,7-trihydroxyflavone]
IC50 [4]: 2.3 µM
reduction in hepatic parasites (hepatic parasites): 99.7%

CCCCCCC/C=C/C=C/C(=O)NCCc1ccc(O)cc1 [dodeca-2E,4E-dienoic acid 4-hydroxy-2-phenylethylamide]
IC50 (L. donovani amastigotes [5]): 13.3 µM
IC50 (Trypanosoma brucei): 7.17 µM
IC50 (T. cruzi): 5.97 µM

methyl-ent-3β-hydroxylabd-8(17)-en-15-oate
IC50 (L. donovani amastigotes [6]): 7.82 µM
IC50 (T. brucei): 3.84 µM
